Test [1] relates to MV4-11 solid tumor flank model. In words: Efficacy study of AC220 plus cytarabine in the MV4-11 solid tumor flank model. The class given is in vivo, SCID mouse. Particulars: for sustained complete regressions: either agent alone (Groups 3 and 5): cytarabine 30 mkd IP Day 1 to 10, AC220 1 mkd PO Day 1 to 24. How it is done:
Dosing was initiated on day 14 post-inoculation with groups of 10 animals per arm. The size of the tumors averaged about 222 mm^3. […] Cytarabine was delivered in a formulation of sterile saline (5 ml/kg/day, prepared weekly) at about 30 or about 60 mkd, QD, IP, and dose was adjusted for body weight. […] The clinical signs and body weight were measured twice weekly. White blood cell (WBC) counts determined at the end of the cytarabine dosing period and again 7 days post drug treatment. The study was carried out in one or multiple treatment cycles with cytarabine delivered for 10 days on each 24 day cycle. […] [table]

Test [2] concerns MV4-11 solid tumor flank model. In words: In vivo study of AC220 plus Aza-C in the MV4-11 solid tumor flank model. Set-up: species or system SCID mouse. Particulars: for flank tumor volume: AC220 0.5 mkd PO. Here is the method:
The size of the tumors averaged about 230 mm^3. […] Aza-C was delivered in a formulation of sterile saline (10 ml/kg/day, prepared in 5-day batches) at about 3 or about 1 mkd, QD, IP, and dose was adjusted for body weight. The average group starting body weight was about 20.6 g. The clinical signs and body weight were measured twice weekly. White blood cell (WBC) counts determined at the end of the Aza-C dosing period and again 7 days post drug treatment. The study was carried out in one or multiple treatment cycles with Aza-C delivered for 5 days on each 15 day cycle. […] [table]

The test system of test [3] is MV4-11 cell lines. In words: AC220 in combination with etoposide, cell viability study (CellTiter-Blue). The class given is cell-based. Particulars: Homo sapiens; MV4-11, AC220 alone. How it is done:
(§1) In this assay, the sequence of administration of AC220 and etoposide was examined for its cytotoxic effect. For the combination schedules tested, MV4-11 cell lines were cultured in RPMI medium with 10% fetal bovine serum and penicillin/streptomycin to a density of 3e5/mL to 1e6/mL and plated at 6e5 cells per well. […] Cytotoxicity was assessed using the CellTiter-Blue™ Viability Assay (#G8081 Promega). A combination index (CI) value was generated for each combination experiment using a commercially available software program (Calcusyn; Biosoft, Manchester, United Kingdom). The interaction of the two agents was analyzed using the median effect method of Chou and Talalay (Adv. Enyme Regul. 1984; 22:27-55). The Combination index and Weighted combination index were calculated as described in Chou, Pharmacol. Rev. 58:621-681, 2006.
As described by Chou, supra, the ranges of CI indicate synergism, additive effect, and antagonism as follows:
CI<1—synergism, CI=1—additive effect, and CI>1—antagonism.
For orientation: Resazurin is reduced to fluorescent resorufin, in cell work by metabolically active cells.

The subject of test [4] is MV4-11 cell lines. The experiment in a line: AC220 in combination with daunorubicin, cell viability study (CellTiter-Blue). The class given is cell-based. Particulars: Homo sapiens; MV4-11, AC220 alone. How it is done:
as §1, with “daunorubicin” for “etoposide”, “22:27-55).” for “22:27-55). The Combination index and Weighted combination index were calculated as described in Chou, Pharmacol. Rev. 58:621-681, 2006.”

Test [5] deals with MV4-11 cell lines. In words: AC220 in combination with cladribine, cell viability study (CellTiter-Blue). The class given is cell-based. Particulars: Homo sapiens; MV4-11, AC220 alone. Here is the method: as §1, with “cladribine” for “etoposide”, “Iscove” for “RPMI”, “3e5/mL” for “3e5/mL to 1e6/mL”, “6e4” for “6e5”, “22:27-55).” for “22:27-55). The Combination index and Weighted combination index were calculated as described in Chou, Pharmacol. Rev. 58:621-681, 2006.”

Test [6] deals with MV4-11 cell lines. In words: AC220 in combination with cytarabine, cell viability study (CellTiter-Blue). Type of test: cell-based. Particulars: Homo sapiens; MV4-11, AC220 alone.
Protocol: In this assay, the sequence of administration of AC220 and cytarabine was examined for its cytotoxic effect. For the combination schedules tested, MV4-11 cell lines were cultured in Iscove medium with 10% fetal bovine serum and penicillin/streptomycin to a density of 3e5/mL and plated at 6e4 cells per well. […] Cytotoxicity was assessed using the CellTiter-Blue™ Viability Assay (#G8081 Promega). A combination index (CI) value was generated for each combination experiment using a commercially available software program (Calcusyn; Biosoft, Manchester, United Kingdom). The interaction of the two agents was analyzed using the median effect method of Chou and Talalay (Adv. Enyme Regul. 1984; 22:27-55).
Test [7] relates to MV4-11 cell lines. Particulars: MV4-11, daunorubicin alone; read-out: reported EC50 value; cited from earlier work.
Test [8] has as its system MV4-11 cell lines. Particulars: MV4-11, cytarabine alone; read-out: reported EC50 value; cited from earlier work.
For test [9], the system named is MV4-11 cell lines. Particulars: MV4-11, etoposide alone; read-out: reported EC50 value; cited from earlier work.
The subject of test [10] is MV4-11 cell lines. Particulars: MV4-11, cladribine alone; read-out: reported EC50 value; cited from earlier work.

We go through six compounds from patent publication US8836218B2, “Methods of treatment using combination therapy” (Ambit Biosciences Corp., priority 2009, dated 2014).

Usually pEC50 stands for −log10 of the EC50, conventionally taken in molar units.

pEC50: −log10 of the molar value. Read-outs that look alike come from different tables or passages of the source.

On to `CC(C)(C)c1cc(NC(=O)Nc2ccc(-c3cn4c(n3)sc3cc(OCCN5CCOCC5)ccc34)cc2)no1` [AC220, N-(5-tert-butyl-isoxazol-3-yl)-N′-{4-[7-(2-morpholin-4-yl-ethoxy)imidazo[2,1-b][1,3]benzothiazol-2-yl]phenyl}urea], for which, in test [1], the sustained complete regressions result was “no sustained complete regressions”. Moreover, the flank tumor volume entry in test [2] (treatment at 15 days post inoculation) and in test [2] (treatment at 20 days post inoculation) was “tumor stasis” each time. Besides, the negative-log EC50 (pEC50) in the test with MV4-11 cell lines [3], in the test with MV4-11 cell lines [4], with MV4-11 cell lines [5] and with MV4-11 cell lines [6] was 9.46 each time.
`COc1cccc2c1C(=O)c1c(O)c3c(c(O)c1C2=O)C[C@@](O)(C(C)=O)C[C@@H]3O[C@H]1C[C@H](N)[C@H](O)[C@H](C)O1` [daunorubicin]: the negative-log EC50 (pEC50) with MV4-11 cell lines [7] was 7.90.
Take `Nc1ccn([C@@H]2O[C@H](CO)[C@@H](O)[C@@H]2O)c(=O)n1` [cytarabine]: the sustained complete regressions entry in test [1] is given as “no sustained complete regressions”. Besides, the tumor burden result in test [1] (sequential, second administration of Ara-C in animals that had 2 weeks of AC220 treatment) is listed as “capable of reducing tumor burden”. The pEC50 with MV4-11 cell lines [8] is 6.42.
For the compound `COc1cc([C@@H]2c3cc4c(cc3[C@@H](O[C@@H]3O[C@@H]5CO[C@@H](C)O[C@H]5[C@H](O)[C@H]3O)[C@H]3COC(=O)[C@H]23)OCO4)cc(OC)c1O` [etoposide], the negative logarithm of the EC50 (pEC50) in the test on MV4-11 cell lines [9] is 7.46.
As to `Nc1ncn([C@@H]2O[C@H](CO)[C@@H](O)[C@H]2O)c(=O)n1` [Aza-C, azacitidine], the “reduction in tumor volume” value in [2] (Aza-C at the 3 mkg dose, IP, Day 1 to 5) was roughly 50%.
Turning to `Nc1nc(Cl)nc2c1ncn2[C@H]1C[C@H](O)[C@@H](CO)O1` [cladribine], the pEC50 in the test on MV4-11 cell lines [10] was 7.79.
